According to ChEMBL document CHEMBL5053487 (J Med Chem, 2021):

Assays:
[1] = target: T1, Estrogen receptor (Homo sapiens, UniProt P03372)
T1 sequence (P03372 whole entry): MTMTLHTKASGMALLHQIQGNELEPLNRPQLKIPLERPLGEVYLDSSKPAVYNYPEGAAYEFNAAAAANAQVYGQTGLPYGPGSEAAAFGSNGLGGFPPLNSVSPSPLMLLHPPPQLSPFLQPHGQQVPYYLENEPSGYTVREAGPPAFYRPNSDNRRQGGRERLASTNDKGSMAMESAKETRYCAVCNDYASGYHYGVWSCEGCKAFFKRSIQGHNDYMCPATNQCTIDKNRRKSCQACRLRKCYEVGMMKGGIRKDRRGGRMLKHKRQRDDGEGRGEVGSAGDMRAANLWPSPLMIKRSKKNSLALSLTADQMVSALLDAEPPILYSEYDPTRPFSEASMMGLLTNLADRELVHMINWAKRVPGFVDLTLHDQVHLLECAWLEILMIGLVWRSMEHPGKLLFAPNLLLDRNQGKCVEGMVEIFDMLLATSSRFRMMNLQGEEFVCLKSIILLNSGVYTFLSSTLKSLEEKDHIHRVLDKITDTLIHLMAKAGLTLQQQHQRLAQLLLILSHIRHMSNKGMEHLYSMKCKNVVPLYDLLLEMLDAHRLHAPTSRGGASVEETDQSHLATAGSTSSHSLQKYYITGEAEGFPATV
Description: Antagonist activity at ERalpha (unknown origin) assessed as inhibition of fluorescein-labeled PGC-1 coactivator recruitment incubated for 30 mins measured by TR-FRET assay

[2] = Antiproliferative activity on human MCF7/TAMR-1 cells at 10 uM assessed as ratio of T/C measured up to 144 hrs relative to control; assay type: functional, MCF-7/TAMR-1
[3] = system: MCF7; experiment: Antiproliferative activity on human MCF7 cells at 5 to 20 uM assessed as ratio of T/C measured up to 144 hrs relative to control; assay type: functional; conditions: dose 5-20 µM

SMILES | T/C [2] | further results
CCC(=C(c1ccc(O)cc1)c1ccc(/C=C/C(=O)NCCCCCNC(=O)CCc2nc3cc(O)ccc3[nH]2)cc1)c1ccccc1 (mixture of isomers) | – | IC50 [1]: 125 nM
CCC(=C(c1ccc(O)cc1)c1ccc(/C=C/C(=O)NCCCCCCNC(=O)CCc2nc3cc(OC)ccc3[nH]2)cc1)c1ccccc1 (mixture of isomers) | 40% | –
CCC(=C(c1ccc(O)cc1)c1ccc(/C=C/C(=O)NCCCNC(=O)CCCn2c(=S)[nH]c3ccccc3c2=O)cc1)c1ccccc1 (mixture of isomers) | 40% | –
CCC(=C(c1ccc(O)cc1)c1ccc(/C=C/C(=O)NCCCCCCNC(=O)CCc2nc3cc(O)ccc3[nH]2)cc1)c1ccccc1 (mixture of isomers) | 40% | –
CCC(=C(c1ccc(O)cc1)c1ccc(/C=C/C(=O)NCCCNC(=O)c2ccc(N3CCN(C(=O)CCCn4c(=S)[nH]c5ccccc5c4=O)CC3)cc2)cc1)c1ccccc1 (mixture of isomers) | 40% | –
C[C@]12CC[C@@H]3c4ccc(O)cc4C[C@@H](CCCCCCCCC[S+]([O-])CCCC(F)(F)C(F)(F)F)[C@H]3[C@@H]1CC[C@@H]2O (stereo partly specified) [FULVESTRANT] | – | T/C [3]: 30%
